Measured values taken from ChEMBL document CHEMBL1201862, “PubChem BioAssay data set” (2004).
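Values below derive from 48-hour exposures of cells grown in 96-well plates, with endpoints linearly interpolated between the two concentrations bracketing the appropriate inhibition level. At the GI50, growth is halved.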 Calls of active or inactive are those of the source. No stated cut-off is given here; in the data, active = GI50 up to about 1.1 µM and inactive = higher.

Legend:
Assay in all cases: NCI tumour cell line growth inhibition, 48 h
MCF7 = test system: MCF7
OVCAR-5 = test system: OVCAR-5
DU-145 = test system: DU-145
CAKI-1 = test system: CAKI-1
SF-268 = test system: SF-268
786-0 = test system: 786-0
OVCAR-8 = test system: OVCAR-8
Malme-3M = test system: Malme-3M
OVCAR-4 = test system: OVCAR-4
SN12C = test system: SN12C
COLO 205 = test system: COLO 205
LOX IMVI = test system: LOX IMVI
SF-539 = test system: SF-539
PC-3 = test system: PC-3
NCI-H460 = test system: NCI-H460
HL-60 = test system: HL-60
HT-29 = test system: HT-29
BT-549 = test system: BT-549
HOP-92 = test system: HOP-92
SNB-75 = test system: SNB-75
K562 = test system: K562
A498 = test system: A498
HCC 2998 = test system: HCC 2998
A549 = test system: A549
RXF 393 = test system: RXF 393
SK-MEL-28 = test system: SK-MEL-28
NCI/ADR-RES = test system: NCI/ADR-RES
UO-31 = test system: UO-31
T47D = test system: T47D
ACHN = test system: ACHN
MDA-MB-435 = test system: MDA-MB-435
HOP-62 = test system: HOP-62
NCI-H226 = test system: NCI-H226
SK-OV-3 = test system: SK-OV-3
SF-295 = test system: SF-295
EKVX = test system: EKVX
SNB-19 = test system: SNB-19
SW-620 = test system: SW-620
CCRF-CEM = test system: CCRF-CEM
NCI-H23 = test system: NCI-H23
HCT-116 = test system: HCT-116
NCI-H522 = test system: NCI-H522
TK-10 = test system: TK-10
Hs-578T = test system: Hs-578T
U-251 = test system: U-251
SK-MEL-5 = test system: SK-MEL-5
KM12 = test system: KM12
M14 = test system: M14
RPMI-8226 = test system: RPMI-8226
UACC-257 = test system: UACC-257
UACC-62 = test system: UACC-62
SR = test system: SR
OVCAR-3 = test system: OVCAR-3
MDA-MB-231 = test system: MDA-MB-231
MOLT-4 = test system: MOLT-4
MDA-N = test system: MDA-N
IGROV-1 = test system: IGROV-1
HCT-15 = test system: HCT-15
SK-MEL-2 = test system: SK-MEL-2

Cc1ccc(S(=O)(=O)N2CCN(S(=O)(=O)c3ccc(C)cc3)CCN(S(=O)(=O)c3ccc(C)cc3)Cc3cc(C#N)c(C#N)cc3CN(S(=O)(=O)c3ccc(C)cc3)CC2)cc1
GI50 (MCF7): > 100 µM (inactive)
GI50 (OVCAR-5): > 100 µM (inactive)
GI50 (DU-145): > 100 µM (inactive)
GI50 (CAKI-1): > 100 µM (inactive)
GI50 (SF-268): > 100 µM (inactive)
GI50 (786-0): > 100 µM (inactive)
GI50 (OVCAR-8): > 100 µM (inactive)
GI50 (Malme-3M): 52.4 µM (inactive)
GI50 (OVCAR-4): > 100 µM (inactive)
GI50 (SN12C): > 100 µM (inactive)
GI50 (COLO 205): > 100 µM (inactive)
GI50 (LOX IMVI): > 100 µM (inactive)
GI50 (SF-539): > 100 µM (inactive)
GI50 (PC-3): 39.4 µM (inactive)
GI50 (NCI-H460): > 100 µM (inactive)
GI50 (HL-60): > 100 µM (inactive)
GI50 (HT-29): > 100 µM (inactive)
GI50 (BT-549): > 100 µM (inactive)
GI50 (HOP-92): 25.3 µM (inactive)
GI50 (SNB-75): 19.1 µM (inactive)
GI50 (K562): > 100 µM (inactive)
GI50 (A498): 20.7 µM (inactive)
GI50 (HCC 2998): > 100 µM (inactive)
GI50 (A549): > 100 µM (inactive)
GI50 (RXF 393): > 100 µM (inactive)
GI50 (SK-MEL-28): > 100 µM (inactive)
GI50 (NCI/ADR-RES): > 100 µM (inactive)
GI50 (UO-31): > 100 µM (inactive)
GI50 (T47D): > 100 µM (inactive)
GI50 (ACHN): > 100 µM (inactive)
GI50 (MDA-MB-435): > 100 µM (inactive)
GI50 (HOP-62): > 100 µM (inactive)
GI50 (NCI-H226): 56.2 µM (inactive)
GI50 (SK-OV-3): > 100 µM (inactive)
GI50 (SF-295): > 100 µM (inactive)
GI50 (EKVX): > 100 µM (inactive)
GI50 (SNB-19): 51.1 µM (inactive)
GI50 (SW-620): > 100 µM (inactive)
GI50 (CCRF-CEM): > 100 µM (inactive)
GI50 (NCI-H23): > 100 µM (inactive)
GI50 (HCT-116): > 100 µM (inactive)
GI50 (NCI-H522): > 100 µM (inactive)
GI50 (TK-10): 86.7 µM (inactive)
GI50 (Hs-578T): > 100 µM (inactive)
GI50 (U-251): > 100 µM (inactive)
GI50 (SK-MEL-5): > 100 µM (inactive)
GI50 (KM12): > 100 µM (inactive)
GI50 (M14): 25.8 µM (inactive)
GI50 (RPMI-8226): > 100 µM (inactive)
GI50 (UACC-257): > 100 µM (inactive)
GI50 (UACC-62): > 100 µM (inactive)
GI50 (SR): > 100 µM (inactive)
GI50 (OVCAR-3): > 100 µM (inactive)
GI50 (MDA-MB-231): 31 µM (inactive)
GI50 (MOLT-4): > 100 µM (inactive)
GI50 (MDA-N): 95.7 µM (inactive)
GI50 (IGROV-1): > 100 µM (inactive)
GI50 (HCT-15): > 100 µM

Cc1c(-c2ccccc2)c(C#N)c2nnn(-c3ccccc3)c(=O)n12
GI50 (MCF7): 80.9 µM (inactive)
GI50 (OVCAR-5): > 100 µM (inactive)
GI50 (DU-145): > 100 µM (inactive)
GI50 (CAKI-1): > 100 µM (inactive)
GI50 (SF-268): > 100 µM (inactive)
GI50 (786-0): 76.4 µM (inactive)
GI50 (OVCAR-8): > 100 µM (inactive)
GI50 (Malme-3M): 97.9 µM (inactive)
GI50 (OVCAR-4): > 100 µM (inactive)
GI50 (SN12C): > 100 µM (inactive)
GI50 (COLO 205): 54.1 µM (inactive)
GI50 (LOX IMVI): 48.4 µM (inactive)
GI50 (SF-539): > 100 µM (inactive)
GI50 (PC-3): 78.9 µM (inactive)
GI50 (NCI-H460): 64.6 µM (inactive)
GI50 (HL-60): 84.1 µM (inactive)
GI50 (HT-29): 29 µM (inactive)
GI50 (BT-549): > 100 µM (inactive)
GI50 (HOP-92): > 100 µM (inactive)
GI50 (SNB-75): > 100 µM (inactive)
GI50 (K562): 40.6 µM (inactive)
GI50 (A498): 65.8 µM (inactive)
GI50 (HCC 2998): 99.8 µM (inactive)
GI50 (A549): 97.9 µM (inactive)
GI50 (RXF 393): 81.7 µM (inactive)
GI50 (SK-MEL-28): > 100 µM (inactive)
GI50 (NCI/ADR-RES): > 100 µM (inactive)
GI50 (UO-31): > 100 µM (inactive)
GI50 (T47D): 33 µM (inactive)
GI50 (ACHN): 76.4 µM (inactive)
GI50 (MDA-MB-435): > 100 µM (inactive)
GI50 (HOP-62): 44.2 µM (inactive)
GI50 (NCI-H226): > 100 µM (inactive)
GI50 (SK-OV-3): > 100 µM (inactive)
GI50 (SF-295): 43.7 µM (inactive)
GI50 (EKVX): > 100 µM (inactive)
GI50 (SNB-19): > 100 µM (inactive)
GI50 (SW-620): > 100 µM (inactive)
GI50 (CCRF-CEM): 34.8 µM (inactive)
GI50 (NCI-H23): > 100 µM (inactive)
GI50 (HCT-116): > 100 µM (inactive)
GI50 (NCI-H522): 44.9 µM (inactive)
GI50 (TK-10): > 100 µM (inactive)
GI50 (Hs-578T): > 100 µM (inactive)
GI50 (U-251): 48.8 µM (inactive)
GI50 (SK-MEL-2): > 100 µM (inactive)
GI50 (SK-MEL-5): 30.9 µM (inactive)
GI50 (KM12): 75.7 µM (inactive)
GI50 (M14): 67.1 µM (inactive)
GI50 (RPMI-8226): > 100 µM (inactive)
GI50 (UACC-257): > 100 µM (inactive)
GI50 (UACC-62): 92.5 µM (inactive)
GI50 (SR): 33.8 µM (inactive)
GI50 (OVCAR-3): 85.1 µM (inactive)
GI50 (MDA-MB-231): > 100 µM (inactive)
GI50 (MDA-N): > 100 µM (inactive)
GI50 (IGROV-1): > 100 µM (inactive)
GI50 (HCT-15): 36 µM
